Source: patent US10301280B2 (Plexxikon Inc., priority 2012, dated 2019)

What was measured:
c-kit mutant D816V = c-kit mutant D816V (Homo sapiens (Human), UniProt P10721, D816V/DEL694-753); experiment: c-Kit mutant D816V biochemical assay (AlphaScreen); conditions: c-kit D816V biochemical inhibitory activity
Procedure: The c-kit mutant D816V (or kinase domain thereof) is an active kinase in AlphaScreen. IC50 values are determined with respect to inhibition of c-Kit mutant D816V kinase activity, where inhibition of phosphorylation of a peptide substrate is measured as a function of compound concentration. Compounds to be tested were dissolved in DMSO to a concentration of 20 mM. These were diluted 30 μl into 120 μl of DMSO (4 mM) and 1 μl was added to an assay plate. These were then serially diluted 1:3 (50 μl to 100 μl DMSO) for a total of 8 points. Plates were prepared such that each kinase reaction is 20 μl in 1× kinase buffer (25 mM HEPES, pH 7.2, 8 mM MgCl2, 2 mM MnCl2, 50 mM NaCl, 0.01% Brij, 1 mM DTT, 0.01% BSA), 5% DMSO and 10 μM ATP. Substrate was 30 nM biotin-(E4Y)10 (EMD Millipore, Cat#12-440). C-kit mutant D816V kinase was at 0.75 ng per sample. After incubation of the kinase reaction for 30 minutes at room temperature, 5 μl of donor beads (Streptavidin coated beads (Perkin Elmer Life Science) final concentration 7.5 μg/ml) in stop buffer (25 mM Hepes pH 7.5, 100 mM EDTA, 0.01% BSA) was added, the sample was mixed and incubated for 20 minutes at room temperature before adding 5 μl of acceptor beads (PY20 coated beads (Perkin Elmer Life Science) final concentration 7.5 ug/ml) in stop buffer. The samples were incubated for 60 minutes at room temperature and the signal per well was read on EnVision reader. Phosphorylated substrate results in binding of the PY20 antibody and association of the donor and acceptor beads such that signal correlates with kinase activity. The signal vs. compound concentration was used to determine the IC50.
Recombinant c-kit mutant D816V (residues 551-934, kinase insertion domain residues 694-753 deleted) with a 6x-histidine N-terminal tag was expressed in E. coli Arctic Express (DE3) RIL (Stratagene). Cells were grown in Terrific Broth (TB) media to an OD600 of 0.6 at 37° C. at which temperature was reduced to 10° C., protein was induced with 1.0 mM IPTG for 18 hours and harvested by centrifugation at 8000×g for 20 minutes. Cells were re-suspended in 0.1M KPO4 pH 8.0, 250 mM NaCl, 10% Glycerol, 0.75% NP-40, 25 mM Imidazole, 5 mM BME with 0.2 mg/ml Lysosyme, 2.0 mM PMSF, 25 μg/ml DNAse I, incubated in ice for 30 minutes and lyzed with a cell disruptor (MicroFluidics). The lysate was clarified by centrifugation at 20,000×g for 2 hours. The protein was captured with Talon resin (Clontech). Contaminating proteins were washed off with 25 mM Tris-HCl pH 8.3, 250 mM NaCl, 15% Glycerol, 1% Triton X-100, and protein eluted using 100 mM EDTA. The protein was further purified using Gel Filtration column 26/600 Superdex 200 (GE) in 50 mM Tris-HCl, pH 8.0, 250 mM NaCl, 15% Glycerol, 5 mM BME. The protein was aliquoted and flash-frozen in liquid Nitrogen.

[1] = tested on: BaF3-FL KIT D816V or BaF3-FL KIT V560G/D816V cell line; experiment: Cell-based assays of c-Kit mutant kinase activity (cell growth, ATPlite); conditions: at least one of the c-kit cell assays of Example 26
Summary of the method: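 IC50 derived from ATP-content luminescence (ATPlite) after three-day compound exposure at 37° C., 5% CO2. Cells: BaF3 rendered growth-dependent on full-length human KIT D816V or V560G/D816V, 1×10^4 per well, RPMI plus 10% FBS; 8 points, 1:3 steps, maximum 10 μM final, 0.2% DMSO.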

Chain of c-kit mutant D816V (P10721 other isoform, or with tags, fused parts or gaps D816V/del 694-753): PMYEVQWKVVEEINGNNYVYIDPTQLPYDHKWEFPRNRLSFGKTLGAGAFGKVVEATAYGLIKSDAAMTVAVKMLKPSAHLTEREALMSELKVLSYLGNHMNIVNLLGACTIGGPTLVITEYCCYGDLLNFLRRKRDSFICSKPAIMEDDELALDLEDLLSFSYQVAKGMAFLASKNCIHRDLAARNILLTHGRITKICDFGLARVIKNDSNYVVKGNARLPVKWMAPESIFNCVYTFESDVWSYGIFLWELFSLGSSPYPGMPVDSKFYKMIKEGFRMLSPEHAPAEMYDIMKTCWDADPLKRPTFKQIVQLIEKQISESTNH

| Structure (SMILES) | IC50 (c-kit mutant D816V) [µM] | IC50 [1] [nM] |
| --- | --- | --- |
| Cc1n[nH]c(C(=O)Nc2cnc3[nH]c(-c4cc(F)cc(N5CCOCC5)c4)cc3c2)c1C [P-2078, N-[2-(3-fluoro-5-morpholino-phenyl)-1H-pyrrolo[2,3-b]pyridin-5-yl]-3,4-dimethyl-1H-pyrazole-5-carboxamide] | 0.0001 to 1 | < 10000 |
| Cc1n[nH]c(C(=O)Nc2cnc3[nH]c(-c4ccc(C#N)c(N5CCCC5)c4)cc3c2)c1C [P-2120, N-[2-(4-cyano-3-pyrrolidin-1-yl-phenyl)-1H-pyrrolo[2,3-b]pyridin-5-yl]-3,4-dimethyl-1H-pyrazole-5-carboxamide] | 0.0001 to 1 | < 10000 |
| Cc1n[nH]c(C(=O)Nc2cnc3[nH]c(-c4cccc(OCCN5CCOCC5)c4)cc3c2)c1C [P-2066, 3,4-dimethyl-N-[2-[3-(2-morpholinoethoxy)phenyl]-1H-pyrrolo[2,3-b]pyridin-5-yl]-1H-pyrazole-5-carboxamide] | 0.0001 to 1 | < 10000 |
| Cc1n[nH]c(C(=O)Nc2cnc3[nH]c(-c4ccc(Cl)cc4)cc3c2)c1C [P-2122, N-[2-(4-chlorophenyl)-1H-pyrrolo[2,3-b]pyridin-5-yl]-3,4-dimethyl-1H-pyrazole-5-carboxamide] | 0.0001 to 1 | < 10000 |
| Cc1[nH]nc(C(=O)Nc2cnc3cc(-c4ccc(F)cc4)nn3c2)c1C [P-2072, N-[2-(4-fluorophenyl)pyrazolo[1,5-a]pyrimidin-6-yl]-4,5-dimethyl-1H-pyrazole-3-carboxamide] | 1 to 10 | < 10000 |
| Cc1n[nH]c(C(=O)Nc2cnc3[nH]c(-c4ccc(OCC5(C)COC5)cc4)cc3c2)c1C [P-2149, 3,4-dimethyl-N-[2-[4-[(3-methyloxetan-3-yl)methoxy]phenyl]-1H-pyrrolo[2,3-b]pyridin-5-yl]-1H-pyrazole-5-carboxamide] | 0.0001 to 1 | < 10000 |
| COc1ccc(-c2cc3cc(NC(=O)c4[nH]nc(C)c4C)cnc3[nH]2)c(Cl)c1 [P-2075, N-[2-(2-chloro-4-methoxy-phenyl)-1H-pyrrolo[2,3-b]pyridin-5-yl]-3,4-dimethyl-1H-pyrazole-5-carboxamide] | 0.0001 to 1 | < 10000 |
| COc1ccc(-c2cc3cc(NC(=O)c4[nH]nc(C)c4C)cnc3[nH]2)c(F)c1 [P-2076, N-[2-(2-fluoro-4-methoxy-phenyl)-1H-pyrrolo[2,3-b]pyridin-5-yl]-3,4-dimethyl-1H-pyrazole-5-carboxamide] | 0.0001 to 1 | < 10000 |
| Cc1n[nH]c(C(=O)Nc2cnc3[nH]c(-c4ccnc(C(=O)NC5CC5)c4)cc3c2)c1C [P-2175, N-cyclopropyl-4-[5-[(3,4-dimethyl-1H-pyrazole-5-carbonyl)amino]-1H-pyrrolo[2,3-b]pyridin-2-yl]pyridine-2-carboxamide] | 0.0001 to 1 | < 10000 |
| Cc1n[nH]c(C(=O)Nc2cnc3[nH]c(-c4ccc(F)nc4)cc3c2)c1C [P-2269, N-[2-(6-fluoro-3-pyridyl)-1H-pyrrolo[2,3-b]pyridin-5-yl]-3,4-dimethyl-1H-pyrazole-5-carboxamide] | 0.0001 to 1 | < 10000 |
| Cc1n[nH]c(C(=O)Nc2cnc3[nH]c(-c4cc(OC(F)(F)F)ccc4Cl)cc3c2)c1C [P-2113, N-[2-[2-chloro-5-(trifluoromethoxy)phenyl]-1H-pyrrolo[2,3-b]pyridin-5-yl]-3,4-dimethyl-1H-pyrazole-5-carboxamide] | 1 to 10 | < 10000 |
| Cc1ccc(-c2cc3cc(NC(=O)c4[nH]nc(C)c4C)cnc3[nH]2)cn1 [P-2123, 3,4-dimethyl-N-[2-(6-methyl-3-pyridyl)-1H-pyrrolo[2,3-b]pyridin-5-yl]-1H-pyrazole-5-carboxamide] | 0.0001 to 1 | < 10000 |
| Cc1n[nH]c(C(=O)Nc2cnc3[nH]c(-c4cnc(N5CCOCC5)nc4)cc3c2)c1C [P-2158, 3,4-dimethyl-N-[2-(2-morpholinopyrimidin-5-yl)-1H-pyrrolo[2,3-b]pyridin-5-yl]-1H-pyrazole-5-carboxamide] | 0.0001 to 1 | < 10000 |
| Cc1n[nH]c(C(=O)Nc2cnc3[nH]c(-c4ccc(F)cc4)cc3c2)c1F [P-2275, 4-fluoro-N-[2-(4-fluorophenyl)-1H-pyrrolo[2,3-b]pyridin-5-yl]-3-methyl-1H-pyrazole-5-carboxamide] | 0.0001 to 1 | < 10000 |
| Cc1n[nH]c(C(=O)Nc2cnc3[nH]c(-c4cccc(F)c4C)cc3c2)c1C [P-2146, N-[2-(3-fluoro-2-methyl-phenyl)-1H-pyrrolo[2,3-b]pyridin-5-yl]-3,4-dimethyl-1H-pyrazole-5-carboxamide] | 0.0001 to 1 | < 10000 |
| Cc1n[nH]c(C(=O)Nc2cnc3[nH]c(I)cc3c2)c1C [P-2188, N-(2-iodo-1H-pyrrolo[2,3-b]pyridin-5-yl)-3,4-dimethyl-1H-pyrazole-5-carboxamide] | 1 to 10 | < 10000 |
| Cc1n[nH]c(C(=O)Nc2cnc3[nH]c(-c4cnc(C(C)C)nc4)cc3c2)c1C [P-2154, N-[2-(2-isopropylpyrimidin-5-yl)-1H-pyrrolo[2,3-b]pyridin-5-yl]-3,4-dimethyl-1H-pyrazole-5-carboxamide] | 0.0001 to 1 | < 10000 |
| O=C(Nc1cnc2[nH]c(-c3ccc(F)cc3)cc2c1)c1n[nH]c2c1CCC2 [P-2056, N-[2-(4-fluorophenyl)-1H-pyrrolo[2,3-b]pyridin-5-yl]-1,4,5,6-tetrahydrocyclopenta[c]pyrazole-3-carboxamide] | 0.0001 to 1 | < 10000 |
